Measurements from US10215751B2, “Carboxy X rhodamine analogs” (PROMEGA CORPORATION, priority 2011, dated 2019).

Target: T1, NanoLuc luciferase-PKC alpha fusion protein (Homo sapiens, UniProt P17252)
T1 construct: expressed in transfected cells; host or cells: HEK293 cells, transient transfection with pF5 plasmid
Test: BRET negative control with cells expressing NanoLuc fused to an irrelevant kinase
Format: cell-based
Details: HEK293 cells expressing NanoLuc-PKCalpha (negative control)
Description: HEK293 cells (20,000 cells per well in 96-well format) were transiently transfected (Fugene HD, Promega Corporation) with pF5 plasmid DNA (Promega Corporation) encoding a NanoLuc® luciferase-p38alpha kinase fusion protein. As a negative control, some cells were transfected with a pF5 plasmids DNA encoding a NanoLuc luciferase-PKC alpha fusion protein. On the second day post transfection, the cell medium was replaced with serum-free Opti-MEM (Life Technologies) with or without 50 ug/ml digitonin. […] A furimazine substrate (PBI 3939), a substrate for the NanoLuc luciferase, then was added to cells to a final concentration of 20 uM. BRET ratios were recorded using a Varioskan luminometer at the following wavelengths: 630 nm (acceptor)/450 nm (donor). Acceptor/donor values were used to determine BRET ratio (FIGS. 21 and 22).

**Q.** For `Cc1ccc(-n2nc(C(C)(C)C)cc2NC(=O)Nc2ccc(OCCN3CCOCC3)c3ccccc23)cc1` [BIRB796, reference compound], which “Effect of unlabeled BIRB796 on BRET signal with PBI 4838” value is on record?
**A.** not affected
